Results from US9290459B1, “Substituted bicyclic dihydropyrimidinones and their use as inhibitors of neutrophil elastase activity” (Boehringer Ingelheim International GmbH, priority 2013, dated 2016).

What follows are compounds tested against Human neutrophil elastase (Homo sapiens (Human), UniProt P08246) (assay: Human Neutrophil Elastase Assay). Settings: human neutrophil elastase, substrate MeOSuc-Ala-Ala-Pro-Val-AMC 250 μM, pH 7.5; read-out: IC50.
Type: biochemical

Chain of Human neutrophil elastase (P08246 30-247): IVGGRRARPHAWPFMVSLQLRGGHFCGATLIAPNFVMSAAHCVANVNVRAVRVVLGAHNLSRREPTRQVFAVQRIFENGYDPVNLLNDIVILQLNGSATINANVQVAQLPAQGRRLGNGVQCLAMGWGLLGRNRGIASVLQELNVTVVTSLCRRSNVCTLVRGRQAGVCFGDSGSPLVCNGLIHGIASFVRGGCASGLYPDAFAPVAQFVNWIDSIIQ

| SMILES | IC50 [nM] |
| --- | --- |
| N#Cc1ccc(C2C3=C(CCC3=O)N(c3cccc(C(F)(F)F)c3)C(=O)N2C(=O)NC2CCS(=N)(=O)CC2)cc1 (stereo not shown) [Example 44, 4-(4-Cyanophenyl)-2,5-dioxo-N-(1-imino-1-oxo-hexahydro-1λ^6-thiopyran-4-yl)-1-(3-(trifluoromethyl)phenyl)-4,5,6,7-tetrahydro-1H-cyclopenta[d]pyrimidine-3(2H)-carboxamide] | < 1 |
| CCS(=O)(=O)c1cc(C#N)ccc1[C@@H]1NC(=O)N(c2cccc(C(F)(F)F)c2)C2=C1C(=O)CC2 [Example 14B, (R)-4-(2,5-Dioxo-1-(3-(trifluoromethyl)phenyl)-2,3,4,5,6,7-hexahydro-1H-cyclopenta[d]pyrimidin-4-yl)-3-(ethylsulfonyl)benzonitrile] | 33 |
| N#Cc1ccc(C2NC(=O)N(c3ccnc(C(F)(F)F)c3)C3=C2C(=O)CC3)cc1 (stereo not shown) [Example 15.5, 4-(2,5-Dioxo-1-(2-(tri-fluoromethyl)pyridin-4-yl)-2,3,4,5,6,7-hexahydro-1H-cyclopenta[d]pyrimidin-4-yl)benzonitrile] | 110 |
| CS(=O)(=O)c1cc(C#N)ccc1[C@@H]1C2=C(CCC2=O)N(c2cccc(C(F)(F)F)c2)C(=O)N1S(C)(=O)=O [Example 37, 3-(Methylsulfonyl)-4-(3-(methylsulfonyl)-2,5-dioxo-1-(3-(trifluoromethyl)phenyl)-2,3,4,5,6,7-hexahydro-1H-cyclopenta[d]pyrimidin-4-yl)benzonitrile] | < 1 |
| CCS(=O)(=O)c1cc(C#N)ccc1C1C2=C(CCC2=O)N(c2cccc(C(F)(F)F)c2)C(=O)N1C (stereo not shown) [Example 27.3] | 1.2 |
| CS(=O)(=O)c1cc(C#N)ccc1C1C2=C(CCC2=O)N(c2ccnc(C(F)(F)F)c2)C(=O)N1S(C)(=O)=O (stereo not shown) [Example 39, 3-(Methylsulfonyl)-4-(3-(methylsulfonyl)-2,5-dioxo-1-(2-(trifluoromethyl)pyridin-4-yl)-2,3,4,5,6,7-hexahydro-1H-cyclopenta[d]pyrimidin-4-yl)benzonitrile] | 7 |
| N#Cc1ccc(C2NC(=O)N(c3cccc(C(F)(F)F)c3)C3=C2C(=O)CC3)c(Cl)c1 (stereo not shown) [Example 15, 3-Chloro-4-(2,5-dioxo-1-(3-(trifluoromethyl)phenyl)-2,3,4,5,6,7-hexahydro-1H-cyclopenta[d]pyrimidin-4-yl)benzonitrile] | 30.1 |
| CN1C(=O)N(c2ccnc(C(F)(F)F)c2)C2=C(C(=O)CC2)C1c1ccc(C#N)cc1 (stereo not shown) [Example 28, 4-(3-Methyl-2,5-dioxo-1-(2-(trifluoromethyl)pyridin-4-yl)-2,3,4,5,6,7-hexahydro-1H-cyclopenta[d]pyrimidin-4-yl)benzonitrile] | 36.7 |
| N#Cc1ccc(C2NC(=O)N(c3cccc(C(F)F)c3)C3=C2C(=O)CC3)cc1 (stereo not shown) [Example 11, 4-(1-(3-(Difluoromethyl)phenyl)-2,5-dioxo-2,3,4,5,6,7-hexahydro-1H-cyclopenta[d]-pyrimidin-4-yl)benzonitrile] | 37.4 |
| CS(=O)(=O)c1cc(C#N)ccc1C1C2=C(CCC2=O)N(c2cccc(C(F)(F)F)c2)C(=O)N1CC1CCOCC1 (stereo not shown) [Example 24.5] | 1.7 |
| Cc1cc(C#N)ccc1C1NC(=O)N(c2cccc(C(F)(F)F)c2)C2=C1C(=O)CC2 (stereo not shown) [Example 15.2] | 28.6 |
| COc1cc(C#N)ccc1C1C2=C(CCC2=O)N(c2cccc(C(F)(F)F)c2)C(=O)N1S(C)(=O)=O (stereo not shown) [Example 38.2] | 34.1 |
| CC1CC2=C(C1=O)C(c1ccc(C#N)cc1)NC(=O)N2c1cccc(C(F)(F)F)c1 (stereo not shown) [Example 15.7] | 66 |
| CS(=O)(=O)c1cc(C#N)ccc1C1C2=C(CCC2=O)N(c2cccc(C(F)(F)F)c2)C(=O)N1S(C)(=O)=O (stereo not shown) [Example 37.3] | 1.9 |
| CS(=O)(=O)N1C(=O)N(c2cccc(C(F)F)c2)C2=C(C(=O)CC2)C1c1ccc(C#N)cc1 (stereo not shown) [Example 36, 4-(1-(3-(Difluoromethyl)phenyl)-3-(methylsulfonyl)-2,5-dioxo-2,3,4,5,6,7-hexahydro-1H-cyclopenta[d]pyrimidin-4-yl)benzonitrile] | 7.2 |
| CS(=O)(=O)c1cc(C#N)ccc1[C@@H]1NC(=O)N(c2cccc(C(F)F)c2)C2=C1C(=O)CC2 [Example 15.4B, (R)-4-(1-(3-(Difluoromethyl)phenyl)-2,5-dioxo-2,3,4,5,6,7-hexahydro-1H-cyclopenta[d]pyrimidin-4-yl)-3-(methylsulfonyl)benzonitrile] | 57.7 |
| N#Cc1ccc(C2NC(=O)N(c3cccc(C(F)(F)F)c3)C3=C2C(=O)CC3)c(Br)c1 (stereo not shown) [Example 13, 3-Bromo-4-(2,5-dioxo-1-(3-(trifluoromethyl)phenyl)-2,3,4,5,6,7-hexahydro-1H-cyclopenta[d]pyrimidin-4-yl)benzonitrile] | 17.9 |
| N#Cc1ccc([C@@H]2NC(=O)N(c3cccc(C(F)(F)F)c3)C3=C2C(=O)CC3)nc1 [Example 15.3B, (R)-6-(2,5-Dioxo-1-(3-(trifluoromethyl)phenyl)-2,3,4,5,6,7-hexahydro-1H-cyclopenta[d]pyrimidin-4-yl)nicotinonitrile] | 1720 |
| N#Cc1ccc(C2C3=C(CCC3=O)N(c3cccc(C(F)(F)F)c3)C(=O)N2CC(=O)O)cc1 (stereo not shown) [Example 4, 2-(4-(4-Cyanophenyl)-2,5-dioxo-1-(3-(trifluoromethyl)phenyl)-6,7-dihydro-1H-cyclopenta[d]pyrimidin-3(2H,4H,5H)-yl)acetic acid] | 10.9 |
| CS(=O)(=O)N1C(=O)N(c2cccc(C(F)(F)F)c2)C2=C(C(=O)CC2)[C@@H]1c1ccc(C#N)cc1 [Example 9B, (S)-4-(3-(Methylsulfonyl)-2,5-dioxo-1-(3-(trifluoromethyl)phenyl)-2,3,4,5,6,7-hexahydro-1H-cyclopenta[d]pyrimidin-4-yl)benzonitrile] | 3180 |
| CN1C(=O)N(c2cccc(C(F)(F)F)c2)C2=C(C(=O)CC2)C1c1ccc(C#N)cc1Cl (stereo not shown) [Example 26.4] | 26.2 |
| CN1C(=O)N(c2cccc(C(F)F)c2)C2=C(C(=O)CC2)C1c1ccc(C#N)cc1S(C)(=O)=O (stereo not shown) [Example 27, 4-(1-(3-(Difluoromethyl)phenyl)-3-methyl-2,5-dioxo-2,3,4,5,6,7-hexahydro-1H-cyclopenta[d]pyrimidin-4-yl)-3-(methylsulfonyl)benzonitrile] | 1.9 |
| C[S+]([O-])c1cc(C#N)ccc1C1NC(=O)N(c2cccc(C(F)(F)F)c2)C2=C1C(=O)CC2 (single isomer, unassigned) [Example 17A, 4-(2,5-dioxo-1-(3-(trifluoromethyl)phenyl)-2,3,4,5,6,7-hexahydro-1H-cyclopenta[d]pyrimidin-4-yl)-3-(methylsulfinyl)benzonitrile] | 8.1 |
| CN1C(=O)N(c2cccc(C(F)(F)F)c2)C2=C(C(=O)CC2)C1c1ccc(C#N)cc1Br (stereo not shown) [Example 27.2] | 7.1 |
| CN1C(=O)N(c2cccc(C(F)F)c2)C2=C(C(=O)CC2)C1c1ccc(C#N)cc1 (stereo not shown) [Example 26, 4-(1-(3-(Difluoromethyl)phenyl)-3-methyl-2,5-dioxo-2,3,4,5,6,7-hexahydro-1H-cyclopenta[d]pyrimidin-4-yl)benzonitrile] | 9.4 |
| CS(=O)(=O)c1cc(C#N)ccc1C1NC(=O)N(c2cccc(C(F)(F)F)c2)C2=C1C(=O)CC2 (stereo not shown) [Example 10, 4-(2,5-Dioxo-1-(3-(trifluoromethyl)phenyl)-2,3,4,5,6,7-hexahydro-1H-cyclopenta[d]pyrimidin-4-yl)-3-(methylsulfonyl)benzonitrile] | 5.8 |
| N#Cc1ccc(C2NC(=O)N(c3cccc(C(F)(F)F)c3)C3=C2C(=O)CC3)c(F)c1 (stereo not shown) [Example 18, 4-(2,5-Dioxo-1-(3-(trifluoromethyl)phenyl)-2,3,4,5,6,7-hexahydro-1H-cyclopenta[d]-pyrimidin-4-yl)-3-fluorobenzonitrile] | 44.2 |

The next lines start with the values.

| IC50 [nM] | SMILES |
| --- | --- |
| < 1 | CNC(=O)N1C(=O)N(c2cccc(C(F)(F)F)c2)C2=C(C(=O)CC2)C1c1ccc(C#N)cc1C (stereo not shown) [Example 50.2] |
| < 1 | CCNC(=O)N1C(=O)N(c2cccc(C(F)(F)F)c2)C2=C(C(=O)CC2)C1c1ccc(C#N)cc1S(=O)(=O)CC (stereo not shown) [Example 51.3] |
| < 1 | CCNC(=O)N1C(=O)N(c2ccnc(C(F)(F)F)c2)C2=C(C(=O)CC2)C1c1ccc(C#N)cc1S(C)(=O)=O (racemic) [Example 56.2] |
| 173 | CNC(=O)N1C(=O)N(c2cccc(C(F)(F)F)c2)C2=C(C(=O)CC2)[C@@H]1c1ccc(C#N)cc1F [Example 49B, (R)-4-(4-Cyano-2-fluorophenyl)-N-methyl-2,5-dioxo-1-(3-(trifluoromethyl)phenyl)-4,5,6,7-tetrahydro-1H-cyclopenta[d]pyrimidine-3(2H)-carboxamide] |
| 619 | N#Cc1ccc([C@H]2C3=C(CCC3=O)N(c3cccc(C(F)F)c3)C(=O)N2C(=O)NCCCO)cc1 [Example 52B, (S)-4-(4-Cyanophenyl)-1-(3-(difluoromethyl)phenyl)-N-(3-hydroxypropyl)-2,5-dioxo-4,5,6,7-tetrahydro-1H-cyclopenta[d]pyrimidine-3(2H)-carboxamide] |
| < 1 | CCNC(=O)N1C(=O)N(c2cccc(C(F)(F)F)c2)C2=C(C(=O)CC2)C1c1ccc(C#N)cc1Cl (stereo not shown) [Example 51.2] |
| 2.4 | CC(C)NC(=O)N1C(=O)N(c2ccnc(C(F)(F)F)c2)C2=C(C(=O)CC2)C1c1ccc(C#N)cc1 (racemic) [Example 54.4] |
| < 1 | CS(=O)(=O)c1cc(C#N)ccc1[C@@H]1C2=C(CCC2=O)N(c2cccc(C(F)(F)F)c2)C(=O)N1C(=O)NC1C2CC1C2 (stereo partly shown) [Example 48.2] |
| < 1 | CNC(=O)N1C(=O)N(c2cccc(C(F)(F)F)c2)C2=C(C(=O)CC2)C1c1ccc(C#N)cc1[S+](C)[O-] (stereo not shown) [Example 50.5] |
| < 1 | CS(=O)(=O)c1cc(C#N)ccc1[C@@H]1C2=C(CCC2=O)N(c2cccc(C(F)(F)F)c2)C(=O)N1C(=O)NCC#N [Example 47.3] |
| < 1 | CS(=O)(=O)c1cc(C#N)ccc1[C@@H]1C2=C(CCC2=O)N(c2cccc(C(F)(F)F)c2)C(=O)N1C(=O)N[C@H]1CC[C@H](O)C1 [Example 48.4] |
| 1.2 | CNC(=O)N1C(=O)N(c2cccc(C(F)(F)F)c2)C2=C(C(=O)CC2)C1c1ccc(C#N)cc1Br (stereo not shown) [Example 50.6] |
| 1.3 | COCCNC(=O)N1C(=O)N(c2cccc(C(F)(F)F)c2)C2=C(C(=O)CC2)C1c1ccc(C#N)cc1F (stereo not shown) [Example 49.2] |
